Source: patent publication US8569039B2, “Ethanol resistance Saccharomyces cerevisiae GP-01 by protoplast fusion, method for manufacturing thereof, method for manufacturing yeast containing high content of bio organic germanium by using Saccharomyces cerevisiae GP-01 and high water soluble sodium metagermanate as a germanium source” (Geranti Pharm Ltd., priority 2008, dated 2013)
Like-named read-outs stand apart in the source and are kept apart here.

Legend:
[1] = tested on: Saccharomyces Cerevisiae (KCTC 7904); settings: KCTC7904
Procedure: (§1) In order to examine the ethanol resistance of the obtained yeast GP-01, the ethanol, which is the inhibitor of the growth, was added by the concentrations and the status of the growth of the yeast was checked.

[2] = tested on: yeast GP-01 (KCTC 11399BP)
Procedure: as §1

[3] = tested on: Saccharomyces Cerevisiae (KCTC 7904); assay: Bio-germanium content inoculated into the yeast by content of germanium in the solution; type: cell-based; settings: KCTC7904; for Bio-germanium content inoculated into the yeast: 20 hours, pH 10, 40° C.
[4] = tested on: yeast GP-01 (KCTC11399BP); assay: as above; type: cell-based, Saccharomyces Cerevisiae; settings: for Bio-germanium content inoculated into the yeast: 20 hours, pH 10, 40° C.
Procedure: The broth medium containing the mutated Saccharomyces Cerevisiae, yeast GP-01 (KCTC11399BP), was centrifuged to collect the palletized yeast. The collected pelletized yeast was added in each of the solutions of sodium metagermanate (Na2GeO3) with different concentrations of germanium. The prepared solutions were cultivated for 20 hours at pH 10 and temperature 40° C.
In order to determine the content of bio-germanium in the yeast GP-01, 1 g of the cultivated and dried yeast GP-01 was added in 30 ml of nitric acid. The obtained sample was heated to be decomposed. After adjusting pH value to 6, 1 ml of the sample was mixed with 1 ml of phenylfluorone and 1 ml of cyclo nucleic acid. The obtained sample was stationary for 30 hours at 30° C. and then determined the content of germanium in the yeast GP-01 by using UV spectrophotometer at 525 nm. […]

[5] = tested on: yeast GP-01 (KCTC 11399BP); assay: Bio-germanium content in yeast by mixing ratio of yeast and Ge solution; type: cell-based, Saccharomyces Cerevisiae; settings: for Bio-germanium content in yeast GP-01: 20 hours, pH 10, 40° C.
Procedure: (§2) In order to determine the content of bio-germanium in the yeast GP-01, 1 g of the cultivated and dried yeast GP-01 was added in 30 ml of nitric acid. The obtained sample was heated to be decomposed. After adjusting pH value to 6, 1 ml of the sample was mixed with 1 ml of phenylfluorone and 1 ml of cyclo nucleic acid. The obtained sample was stationary for 30 hours at 30° C. and then determined the content of germanium in the yeast GP-01 by using UV spectrophotometer at 525 nm.
The broth containing the ethanol-resistant yeast GP-01 as prepared in the Example 1 was centrifuged to collect the yeast. […] The obtained solutions were cultivated for 20 hours at pH 10 and temperature 40° C.
Also, as a control, the same procedure described in Example 3 was performed, except that a solution of (inorganic) germanium dioxide (GeO2) was used instead of sodium metagermanate (Na2GeO3).
The contents of germanium in the yeast GP-01 (KCTC 11399BP) was measured by the same method as Example 2.

[6] = 25° C.; cited from earlier work
[7] = Solubility of the germanium source; type: physicochemical; settings: 25° C.
Procedure: The solution of Sodium Metagermanate (Na2GeO3) was prepared by dissolving sodium carbonate (Na2CO3, Kanto, Japan) in water, adding germanium dioxide (GeO2, PPM GmbH, Germany) at the equivalent ratio of 1:1 against the said sodium carbonate, and sterilized the obtained solution.

[8] = tested on: yeast GP-01 (KCTC11399BP); assay: Germanium inoculated into the yeast by pH, temperature and surfactant concentration; type: cell-based, Saccharomyces Cerevisiae; settings: 5,000 ppm germanium, ratio 1:0.5, 20 hours
Procedure: as §2
The broth containing the ethanol-resistant yeast GP-01 as prepared in the Example 1 was centrifuged to collect the yeast. At the ratio of 1:0.5, the collected yeast was added in the solution of sodium metagermanate (Na2GeO3) having 5,000 ppm of germanium. After adding surfactant (Twin-80), the obtained solution was cultivated for 20 hours by various conditions for pH, temperature or the broth containing germanium.
The pH was regulated by using 1N NaOH, and a number of tests were repeatedly performed under different temperatures and concentrations of surfactant.
When measuring the content of germanium, the broth without adding the surfactant was used as a control.
The measurement of content of bio-germanium in the yeast GP-01 (KCTC11399BP) of the present invention was made by the same method as Example 2.

[9] = germanium in the solution 1,000 ppm
[10] = germanium in the solution 2,000 ppm
[11] = germanium in the solution 3,000 ppm
[12] = germanium in the solution 4,000 ppm
[13] = germanium in the solution 5,000 ppm
[14] = mixing ratio yeast GP-01:Ge solution 1:0.2
[15] = mixing ratio yeast GP-01:Ge solution 1:0.5
[16] = mixing ratio yeast GP-01:Ge solution 1:1
[17] = mixing ratio yeast GP-01:Ge solution 1:2
[18] = mixing ratio yeast GP-01:Ge solution 1:3
[19] = germanium in the solution 10,000 ppm
[20] = germanium in the solution 15,000 ppm

Compound: CCO [ethanol]
- Growth status OD(660 nm, 1/20) ([1]; ethanol 6.0 % v/v): 0.07
- Growth status OD(660 nm, 1/20) ([1]; ethanol 8.0 % v/v): 0.06
- Growth status OD(660 nm, 1/20) ([1]; ethanol 10.0 % v/v): 0.05
- Growth status OD(660 nm, 1/20) ([2]; GP-01 1st investigation, ethanol 6.0 % v/v): 0.15
- Growth status OD(660 nm, 1/20) ([2]; GP-01 1st investigation, ethanol 8.0 % v/v): 0.14
- Growth status OD(660 nm, 1/20) ([2]; GP-01 1st investigation, ethanol 10.0 % v/v): 0.16
- Growth status OD(660 nm, 1/20) ([2]; GP-01 1st investigation, ethanol 15.0 % v/v): 0.12
- Growth status OD(660 nm, 1/20) ([2]; GP-01 2nd investigation, ethanol 6.0 % v/v): 0.14
- Growth status OD(660 nm, 1/20) ([2]; GP-01 2nd investigation, ethanol 8.0 % v/v): 0.20
- Growth status OD(660 nm, 1/20) ([2]; GP-01 2nd investigation, ethanol 10.0 % v/v): 0.19
- Growth status OD(660 nm, 1/20) ([2]; GP-01 2nd investigation, ethanol 15.0 % v/v): 0.08
- Growth status OD(660 nm, 1/20) ([2]; GP-01 3rd investigation, ethanol 6.0 % v/v): 0.20
- Growth status OD(660 nm, 1/20) ([2]; GP-01 3rd investigation, ethanol 8.0 % v/v): 0.23
- Growth status OD(660 nm, 1/20) ([2]; GP-01 3rd investigation, ethanol 10.0 % v/v): 0.24
- Growth status OD(660 nm, 1/20) ([2]; GP-01 3rd investigation, ethanol 15.0 % v/v): 0.15

Compound: germanium dioxide [GeO2 solution, reference compound]
- Yield (%) of germanium inoculated [3, 9]: 78%
- Bio-germanium content inoculated into the yeast [3, 9]: 780 ppm
- Yield (%) of germanium inoculated [3, 10]: 44%
- Bio-germanium content inoculated into the yeast [3, 10]: 870 ppm
- Yield (%) of germanium inoculated [3, 11]: 33%
- Bio-germanium content inoculated into the yeast [3, 11]: 980 ppm
- Yield (%) of germanium inoculated [3, 12]: 36%
- Bio-germanium content inoculated into the yeast [3, 12]: 1,430 ppm
- Yield (%) of germanium inoculated [3, 13]: 30%
- Bio-germanium content inoculated into the yeast [3, 13]: 1,500 ppm
- Yield (%) of germanium inoculated [4, 9]: 87%
- Bio-germanium content inoculated into the yeast [4, 9]: 870 ppm
- Yield (%) of germanium inoculated [4, 10]: 89%
- Bio-germanium content inoculated into the yeast [4, 10]: 1,786 ppm
- Yield (%) of germanium inoculated [4, 11]: 89%
- Bio-germanium content inoculated into the yeast [4, 11]: 2,670 ppm
- Yield (%) of germanium inoculated [4, 12]: 96%
- Bio-germanium content inoculated into the yeast [4, 12]: 3,850 ppm
- Yield (%) of germanium inoculated [4, 13]: 95%
- Bio-germanium content inoculated into the yeast [4, 13]: 4,753 ppm
- Bio-germanium content in yeast GP-01 [5, 14]: 1,920 ppm
- Bio-germanium content in yeast GP-01 [5, 15]: 5,670 ppm
- Bio-germanium content in yeast GP-01 [5, 16]: 4,780 ppm
- Bio-germanium content in yeast GP-01 [5, 17]: 2,500 ppm
- Bio-germanium content in yeast GP-01 [5, 18]: 1,700 ppm
- solubility [6]: 5.2 mg/mL

Compound: [Na+].[Na+].[O]=[Ge]([O-])[O-] [Na2GeO3 solution, sodium metagermanate]
- solubility [7]: 500 mg/mL
- Yield (%) of germanium inoculated [3, 11]: 32%
- Bio-germanium content inoculated into the yeast [3, 11]: 950 ppm
- Yield (%) of germanium inoculated [3, 12]: 38%
- Bio-germanium content inoculated into the yeast [3, 12]: 1,500 ppm
- Yield (%) of germanium inoculated [3, 13]: 47%
- Bio-germanium content inoculated into the yeast [3, 13]: 2,370 ppm
- Yield (%) of germanium inoculated [3, 19]: 45%
- Bio-germanium content inoculated into the yeast [3, 19]: 4,500 ppm
- Yield (%) of germanium inoculated [3, 20]: 38%
- Bio-germanium content inoculated into the yeast [3, 20]: 5,730 ppm
- Yield (%) of germanium inoculated [4, 11]: 155%
- Bio-germanium content inoculated into the yeast [4, 11]: 4,640 ppm
- Yield (%) of germanium inoculated [4, 12]: 171%
- Bio-germanium content inoculated into the yeast [4, 12]: 6,840 ppm
- Yield (%) of germanium inoculated [4, 13]: 194%
- Bio-germanium content inoculated into the yeast [4, 13]: 9,700 ppm
- Yield (%) of germanium inoculated [4, 19]: 130%
- Bio-germanium content inoculated into the yeast [4, 19]: 13,000 ppm
- Yield (%) of germanium inoculated [4, 20]: 110%
- Bio-germanium content inoculated into the yeast [4, 20]: 16,500 ppm
- increase of content of bio-germanium versus germanium dioxide ([5]; Na2GeO3 solution compared with germanium dioxide, Table 3): 2-4 times
- Bio-germanium content in yeast GP-01 [5, 14]: 4,350 ppm
- Bio-germanium content in yeast GP-01 [5, 15]: 14,800 ppm
- Bio-germanium content in yeast GP-01 [5, 16]: 12,600 ppm
- Bio-germanium content in yeast GP-01 [5, 17]: 9,760 ppm
- Bio-germanium content in yeast GP-01 [5, 18]: 8,720 ppm
- Bio-germanium inoculated ([8]; Control: broth without adding the surfactant): 1,720 ppm
- Bio-germanium inoculated ([8]; pH 4.0): 2,190 ppm
- Bio-germanium inoculated ([8]; pH 5.0): 3,254 ppm
- Bio-germanium inoculated ([8]; pH 6.0): 5,320 ppm
- Bio-germanium inoculated ([8]; pH 6.5): 5,790 ppm
- Bio-germanium inoculated ([8]; pH 7.0): 9,750 ppm
- Bio-germanium inoculated ([8]; pH 8.0): 10,700 ppm
- Bio-germanium inoculated ([8]; pH 9.0): 15,200 ppm
- Bio-germanium inoculated ([8]; pH 10.0): 16,300 ppm
- Bio-germanium inoculated ([8]; pH 11.0): 9,320 ppm
- Bio-germanium inoculated ([8]; surfactant Twin-80 0.1 wt %): 8,743 ppm
- Bio-germanium inoculated ([8]; surfactant Twin-80 0.2 wt %): 16,250 ppm
- Bio-germanium inoculated ([8]; surfactant Twin-80 0.3 wt %): 12,530 ppm
- Bio-germanium inoculated ([8]; surfactant Twin-80 0.4 wt %): 9,670 ppm
- Bio-germanium inoculated ([8]; surfactant Twin-80 0.5 wt %): 7,624 ppm
- Bio-germanium inoculated ([8]; surfactant Twin-80 0.6 wt %): 5,670 ppm
- Bio-germanium inoculated ([8]; surfactant Twin-80 0.7 wt %): 4,830 ppm
- Bio-germanium inoculated ([8]; surfactant Twin-80 0.8 wt %): 2,700 ppm
- Bio-germanium inoculated ([8]; temperature 20 ° C.): 3,102 ppm
- Bio-germanium inoculated ([8]; temperature 30 ° C.): 9,648 ppm
- Bio-germanium inoculated ([8]; temperature 35 ° C.): 13,250 ppm
- Bio-germanium inoculated ([8]; temperature 40 ° C.): 14,700 ppm
- Bio-germanium inoculated ([8]; temperature 45 ° C.): 8,350 ppm
- Bio-germanium inoculated ([8]; temperature 50 ° C.): 4,564 ppm
